Results on 21 compounds are retold here after US20090304692A1, “TRIAZINE COMPOUNDS AS PI3 KINASE AND MTOR INHIBITORS” (Wyeth, priority 2008, published 2009).

Like-named read-outs stand apart in the source and are kept apart here.

Assay [1] relates to human prostate LNCap tumor cell line. In words: In vitro cell culture growth assay (MTS), LNCap. The settings on record: Homo sapiens, LNCaP, 72 h, read-out: IC50 LNCap.
Another assay has as its target PI3K-α (Homo sapiens, UniProt P42336). Kind of assay: PI3K-alpha fluorescence polarization assay. To be noted: read-out: IC50 PI3Kα.
Another assay has as its target Human mTOR (FLAG-TOR) (Homo sapiens, UniProt P42345). Kind of assay: mTOR kinase assay (DELFIA format, purified enzyme). Type of assay: biochemical. To be noted: read-out: IC50 mTOR.
Another assay addresses PI3K-γ (Homo sapiens, UniProt P48736). In words: PI3K-gamma fluorescence polarization assay.

PI3K-γ, sequence (P48736 whole entry, species assumed): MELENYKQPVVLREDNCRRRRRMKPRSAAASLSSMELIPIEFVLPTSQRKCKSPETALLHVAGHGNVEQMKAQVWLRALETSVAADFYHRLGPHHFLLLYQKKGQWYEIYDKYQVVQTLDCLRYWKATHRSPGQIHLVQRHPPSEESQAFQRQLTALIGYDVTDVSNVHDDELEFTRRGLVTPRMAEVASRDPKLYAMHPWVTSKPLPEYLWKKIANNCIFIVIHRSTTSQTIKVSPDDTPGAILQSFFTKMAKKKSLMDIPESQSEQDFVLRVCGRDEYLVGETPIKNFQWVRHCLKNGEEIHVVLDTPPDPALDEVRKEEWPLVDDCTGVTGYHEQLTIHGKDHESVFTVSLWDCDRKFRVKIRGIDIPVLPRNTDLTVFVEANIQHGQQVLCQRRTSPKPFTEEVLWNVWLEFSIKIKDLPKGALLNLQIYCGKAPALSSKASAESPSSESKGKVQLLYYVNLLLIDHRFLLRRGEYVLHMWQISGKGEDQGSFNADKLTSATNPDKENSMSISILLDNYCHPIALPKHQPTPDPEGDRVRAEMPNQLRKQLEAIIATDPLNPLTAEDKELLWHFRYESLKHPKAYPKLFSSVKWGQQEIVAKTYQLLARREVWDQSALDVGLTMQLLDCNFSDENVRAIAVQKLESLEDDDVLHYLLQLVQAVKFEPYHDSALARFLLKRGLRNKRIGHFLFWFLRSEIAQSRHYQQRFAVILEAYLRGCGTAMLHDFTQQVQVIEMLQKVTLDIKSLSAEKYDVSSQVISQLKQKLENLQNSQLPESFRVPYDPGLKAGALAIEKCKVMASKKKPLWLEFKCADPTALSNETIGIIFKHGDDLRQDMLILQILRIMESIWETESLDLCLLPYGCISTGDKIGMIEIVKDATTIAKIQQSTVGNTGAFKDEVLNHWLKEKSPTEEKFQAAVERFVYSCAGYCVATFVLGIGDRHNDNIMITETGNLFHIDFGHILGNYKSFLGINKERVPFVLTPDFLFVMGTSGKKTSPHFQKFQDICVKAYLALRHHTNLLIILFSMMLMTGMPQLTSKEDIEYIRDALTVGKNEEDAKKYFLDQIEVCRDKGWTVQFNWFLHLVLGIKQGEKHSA
PI3K-α, sequence (P42336 whole entry, species assumed): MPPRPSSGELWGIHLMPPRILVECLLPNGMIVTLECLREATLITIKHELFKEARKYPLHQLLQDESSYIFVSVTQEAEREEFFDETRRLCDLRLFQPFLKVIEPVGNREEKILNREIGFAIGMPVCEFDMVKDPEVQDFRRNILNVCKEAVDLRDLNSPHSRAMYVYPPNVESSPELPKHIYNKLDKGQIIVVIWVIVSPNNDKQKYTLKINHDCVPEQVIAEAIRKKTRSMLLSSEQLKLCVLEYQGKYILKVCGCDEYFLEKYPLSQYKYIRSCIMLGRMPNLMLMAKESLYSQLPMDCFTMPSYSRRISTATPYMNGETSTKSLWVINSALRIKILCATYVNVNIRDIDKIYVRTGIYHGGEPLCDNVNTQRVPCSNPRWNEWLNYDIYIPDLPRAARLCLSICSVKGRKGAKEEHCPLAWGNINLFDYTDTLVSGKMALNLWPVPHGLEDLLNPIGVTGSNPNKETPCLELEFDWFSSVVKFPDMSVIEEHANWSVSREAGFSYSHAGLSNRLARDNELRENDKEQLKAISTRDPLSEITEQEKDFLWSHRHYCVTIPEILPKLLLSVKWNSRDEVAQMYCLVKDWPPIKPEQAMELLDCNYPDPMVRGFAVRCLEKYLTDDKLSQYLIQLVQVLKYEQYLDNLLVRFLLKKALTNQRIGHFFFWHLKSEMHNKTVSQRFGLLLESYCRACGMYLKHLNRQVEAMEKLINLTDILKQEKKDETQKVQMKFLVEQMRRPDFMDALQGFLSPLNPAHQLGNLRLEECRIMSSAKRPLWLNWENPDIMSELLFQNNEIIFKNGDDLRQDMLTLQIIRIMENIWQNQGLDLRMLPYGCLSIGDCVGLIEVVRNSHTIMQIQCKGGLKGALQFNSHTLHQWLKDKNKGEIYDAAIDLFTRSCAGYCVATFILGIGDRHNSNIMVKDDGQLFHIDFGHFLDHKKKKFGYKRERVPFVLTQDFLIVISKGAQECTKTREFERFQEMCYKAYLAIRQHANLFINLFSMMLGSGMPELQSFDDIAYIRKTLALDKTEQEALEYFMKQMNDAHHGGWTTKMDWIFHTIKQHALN
PI3K-α, sequence (P27986 whole entry partner, species assumed): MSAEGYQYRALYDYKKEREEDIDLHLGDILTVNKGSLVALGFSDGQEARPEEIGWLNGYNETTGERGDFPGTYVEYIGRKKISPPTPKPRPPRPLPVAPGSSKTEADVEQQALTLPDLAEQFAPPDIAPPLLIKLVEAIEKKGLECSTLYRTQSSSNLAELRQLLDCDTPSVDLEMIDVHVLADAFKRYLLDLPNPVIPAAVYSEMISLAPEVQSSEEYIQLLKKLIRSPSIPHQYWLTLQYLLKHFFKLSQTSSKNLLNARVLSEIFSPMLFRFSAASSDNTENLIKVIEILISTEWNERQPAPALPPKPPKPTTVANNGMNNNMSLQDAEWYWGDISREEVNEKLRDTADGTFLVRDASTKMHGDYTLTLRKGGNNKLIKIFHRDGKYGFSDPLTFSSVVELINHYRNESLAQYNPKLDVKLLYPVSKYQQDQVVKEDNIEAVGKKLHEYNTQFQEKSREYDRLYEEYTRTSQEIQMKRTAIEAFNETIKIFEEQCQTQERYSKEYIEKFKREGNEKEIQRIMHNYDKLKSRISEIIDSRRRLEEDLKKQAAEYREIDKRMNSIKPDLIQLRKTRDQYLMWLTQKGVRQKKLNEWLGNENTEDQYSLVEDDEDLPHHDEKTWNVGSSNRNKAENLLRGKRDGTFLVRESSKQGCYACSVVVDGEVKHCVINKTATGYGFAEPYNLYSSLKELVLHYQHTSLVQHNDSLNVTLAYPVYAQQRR
Human mTOR (FLAG-TOR), sequence (P42345 1360-2549 limits assumed): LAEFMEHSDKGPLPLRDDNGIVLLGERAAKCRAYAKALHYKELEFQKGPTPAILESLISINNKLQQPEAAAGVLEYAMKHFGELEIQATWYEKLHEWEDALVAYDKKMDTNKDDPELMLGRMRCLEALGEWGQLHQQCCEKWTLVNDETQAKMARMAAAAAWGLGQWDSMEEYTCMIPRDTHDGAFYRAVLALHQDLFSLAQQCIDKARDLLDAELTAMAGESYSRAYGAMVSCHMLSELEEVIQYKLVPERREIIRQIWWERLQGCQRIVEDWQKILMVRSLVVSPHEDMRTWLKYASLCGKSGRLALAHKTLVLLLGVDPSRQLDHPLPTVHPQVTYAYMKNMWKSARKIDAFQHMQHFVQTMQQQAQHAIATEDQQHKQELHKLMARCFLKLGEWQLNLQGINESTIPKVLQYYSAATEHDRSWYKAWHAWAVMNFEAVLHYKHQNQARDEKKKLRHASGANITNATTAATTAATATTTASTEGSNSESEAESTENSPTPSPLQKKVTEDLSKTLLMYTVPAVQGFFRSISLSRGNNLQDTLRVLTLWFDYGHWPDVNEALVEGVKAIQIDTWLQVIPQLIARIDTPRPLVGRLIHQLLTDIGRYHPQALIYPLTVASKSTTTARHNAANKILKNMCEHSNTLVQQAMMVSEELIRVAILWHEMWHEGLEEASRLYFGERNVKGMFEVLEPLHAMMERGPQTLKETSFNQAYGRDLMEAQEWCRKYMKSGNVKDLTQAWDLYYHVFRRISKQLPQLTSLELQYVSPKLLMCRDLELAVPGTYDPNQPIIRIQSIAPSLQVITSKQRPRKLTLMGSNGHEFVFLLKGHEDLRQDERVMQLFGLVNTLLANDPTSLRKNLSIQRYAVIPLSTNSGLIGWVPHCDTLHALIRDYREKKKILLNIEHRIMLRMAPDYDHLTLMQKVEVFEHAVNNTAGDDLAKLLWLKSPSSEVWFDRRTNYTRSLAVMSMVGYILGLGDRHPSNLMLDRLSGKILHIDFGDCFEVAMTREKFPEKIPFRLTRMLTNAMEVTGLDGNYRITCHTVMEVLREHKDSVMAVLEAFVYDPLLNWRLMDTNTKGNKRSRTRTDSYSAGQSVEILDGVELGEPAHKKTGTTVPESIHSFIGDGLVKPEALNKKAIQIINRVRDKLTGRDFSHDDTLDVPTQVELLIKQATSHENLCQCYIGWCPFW

For `O=C(Nc1ccc(CN2CCCC2)cc1)Nc1ccc(-c2nc(N3C4CCC3COC4)nc(N3C4CCC3COC4)n2)cc1` [Example 369, 1-(4-(4,6-di(3-oxa-8-azabicyclo[3.2.1]octan-8-yl)-1,3,5-triazin-2-yl)phenyl)-3-(4-(pyrrolidin-1-ylmethyl)phenyl)urea], the IC50 – broadly, the concentration needed to halve the response being measured – in assay [1] came to 3 nM; on PI3K-α, 362 nM; on Human mTOR (FLAG-TOR), 1.3 nM; at PI3K-γ (read-out: IC50 PI3Kγ), 2560 nM.

With `CN(C)CC(=O)Nc1ccc(NC(=O)Nc2ccc(-c3nc(N4C5CCC4COC5)nc(N4C5CCC4COC5)n3)cc2)cc1` [Example 373, N-(4-(3-(4-(4,6-di(3-oxa-8-azabicyclo[3.2.1]octan-8-yl)-1,3,5-triazin-2-yl)phenyl)ureido)phenyl)-2-(dimethylamino)acetamide], the IC50 is 1 nM in assay [1], 70 nM at PI3K-α, 0.16 nM at Human mTOR (FLAG-TOR) and 2960 nM at PI3K-γ (read-out: IC50 PI3Kγ).

On to `CN1CCN(CC(=O)Nc2ccc(NC(=O)Nc3ccc(-c4nc(N5C6CCC5COC6)nc(N5C6CCC5COC6)n4)cc3)cc2)CC1` [Example 374, N-(4-(3-(4-(4,6-di(3-oxa-8-azabicyclo[3.2.1]octan-8-yl)-1,3,5-triazin-2-yl)phenyl)ureido)phenyl)-2-(4-methylpiperazin-1-yl)acetamide], for which the IC50 in assay [1] was under 0.8 nM; on PI3K-α, 64 nM; at Human mTOR (FLAG-TOR), 0.14 nM; on PI3K-γ (read-out: IC50 PI3Kγ), 3920 nM.

Regarding `O=C(CN1CCCC1)Nc1ccc(NC(=O)Nc2ccc(-c3nc(N4C5CCC4COC5)nc(N4C5CCC4COC5)n3)cc2)cc1` [Example 375, N-(4-(3-(4-(4,6-di(3-oxa-8-azabicyclo[3.2.1]octan-8-yl)-1,3,5-triazin-2-yl)phenyl)ureido)phenyl)-2-(pyrrolidin-1-yl)acetamide], the IC50 is under 0.8 nM in assay [1], 44 nM on PI3K-α, 0.15 nM on Human mTOR (FLAG-TOR) and 2590 nM at PI3K-γ (read-out: IC50 PI3Kγ).

Regarding `CC(C)Nc1nc(-c2ccc(NC(=O)Nc3cccnc3)cc2)nc(N2C3CCC2COC3)n1` [Example 376, 1-(4-(4-(3-oxa-8-azabicyclo[3.2.1]octan-8-yl)-6-(isopropylamino)-1,3,5-triazin-2-yl)phenyl)-3-(pyridin-3-yl)urea], the IC50 is 50 nM in assay [1], 2600 nM on PI3K-α, 2.3 nM at Human mTOR (FLAG-TOR) and over 10000 nM against PI3K-γ.

With `CC(C)Nc1nc(-c2ccc(NC(=O)Nc3ccncc3)cc2)nc(N2C3CCC2COC3)n1` [Example 377, 1-(4-(4-(3-oxa-8-azabicyclo[3.2.1]octan-8-yl)-6-(isopropylamino)-1,3,5-triazin-2-yl)phenyl)-3-(pyridin-4-yl)urea], the IC50 in assay [1] was found to be 90 nM; on PI3K-α it was 2610 nM; at Human mTOR (FLAG-TOR), 3.9 nM; on PI3K-γ (read-out: IC50 PI3Kγ) it was 4720 nM.

With `CC(C)Nc1nc(-c2ccc(NC(=O)Nc3ccc(CN4CCN(C)CC4)cc3)cc2)nc(N2C3CCC2COC3)n1` [Example 379, 1-(4-(4-(3-oxa-8-azabicyclo[3.2.1]octan-8-yl)-6-(isopropylamino)-1,3,5-triazin-2-yl)phenyl)-3-(4-((4-methylpiperazin-1-yl)methyl)phenyl)urea], the IC50 in assay [1] came to 140 nM; on PI3K-α it was 4750 nM; at Human mTOR (FLAG-TOR) it was 7.3 nM; on PI3K-γ (read-out: IC50 PI3Kγ), 5260 nM.

Consider `CC(C)Nc1nc(-c2ccc(NC(=O)Nc3ccc(CN4CCNCC4)cc3)cc2)nc(N2C3CCC2COC3)n1` [Example 380, 1-(4-(4-(3-oxa-8-azabicyclo[3.2.1]octan-8-yl)-6-(isopropylamino)-1,3,5-triazin-2-yl)phenyl)-3-(4-(piperazin-1-ylmethyl)phenyl)urea], for which the IC50 was 300 nM in assay [1], 3340 nM at PI3K-α, 5.1 nM at Human mTOR (FLAG-TOR) and 3560 nM at PI3K-γ (read-out: IC50 PI3Kγ).

Turning to `CC(C)Nc1nc(-c2ccc(NC(=O)Nc3ccc(CN(C)C)cc3)cc2)nc(N2C3CCC2COC3)n1` [Example 381, 1-(4-(4-(3-oxa-8-azabicyclo[3.2.1]octan-8-yl)-6-(isopropylamino)-1,3,5-triazin-2-yl)phenyl)-3-(4-((dimethylamino)methyl)phenyl)urea], the IC50 in assay [1] turned out to be 140 nM; on PI3K-α, 2960 nM; at Human mTOR (FLAG-TOR), 5.9 nM; at PI3K-γ (read-out: IC50 PI3Kγ) it was 5400 nM.

In the case of `CC(C)Nc1nc(-c2ccc(NC(=O)Nc3ccc(CN)cc3)cc2)nc(N2C3CCC2COC3)n1` [Example 382, 1-(4-(4-(3-oxa-8-azabicyclo[3.2.1]octan-8-yl)-6-(isopropylamino)-1,3,5-triazin-2-yl)phenyl)-3-(4-(aminomethyl)phenyl)urea], the IC50 in assay [1] stood at 48 nM; on PI3K-α it was 522 nM; at Human mTOR (FLAG-TOR) it was 4.5 nM; on PI3K-γ (read-out: IC50 PI3Kγ), 4310 nM.

As for `CC(C)Nc1nc(-c2ccc(NC(=O)Nc3ccc(CN4CCCC4)cc3)cc2)nc(N2C3CCC2COC3)n1` [Example 383, 1-(4-(4-(3-oxa-8-azabicyclo[3.2.1]octan-8-yl)-6-(isopropylamino)-1,3,5-triazin-2-yl)phenyl)-3-(4-(pyrrolidin-1-ylmethyl)phenyl)urea], the IC50 in assay [1] came to 150 nM; at PI3K-α, 2980 nM; at Human mTOR (FLAG-TOR), 6.1 nM; at PI3K-γ (read-out: IC50 PI3Kγ), 3610 nM.

As for `CC(C)Nc1nc(-c2ccc(NC(=O)Nc3ccc(OCCN4CCCC4)cc3)cc2)nc(N2C3CCC2COC3)n1` [Example 384, 1-(4-(4-(3-oxa-8-azabicyclo[3.2.1]octan-8-yl)-6-(isopropylamino)-1,3,5-triazin-2-yl)phenyl)-3-(4-(2-(pyrrolidin-1-yl)ethoxy)phenyl)urea], the IC50 in assay [1] came to 50 nM; on PI3K-α, 4220 nM; at Human mTOR (FLAG-TOR), 6.4 nM; on PI3K-γ (read-out: IC50 PI3Kγ), 5380 nM.

For the compound `CC(C)Nc1nc(-c2ccc(NC(=O)Nc3ccc(OCCN(C)C)cc3)cc2)nc(N2C3CCC2COC3)n1` [Example 385, 1-(4-(4-(3-oxa-8-azabicyclo[3.2.1]octan-8-yl)-6-(isopropylamino)-1,3,5-triazin-2-yl)phenyl)-3-(4-(2-(dimethylamino)ethoxy)phenyl)urea], the IC50 is 70 nM in assay [1], 3400 nM on PI3K-α, 5.7 nM at Human mTOR (FLAG-TOR) and 4690 nM at PI3K-γ (read-out: IC50 PI3Kγ).

Turning to `CC(C)Nc1nc(-c2ccc(NC(=O)Nc3ccc(N4CCNCC4)cc3)cc2)nc(N2C3CCC2COC3)n1` [Example 387, 1-(4-(4-(3-oxa-8-azabicyclo[3.2.1]octan-8-yl)-6-(isopropylamino)-1,3,5-triazin-2-yl)phenyl)-3-(4-(piperazin-1-yl)phenyl)urea], the IC50 in assay [1] came to 70 nM; on PI3K-α it was 3420 nM; at Human mTOR (FLAG-TOR) it was 3.2 nM; at PI3K-γ (read-out: IC50 PI3Kγ), 2860 nM.

On to `CC(C)Nc1nc(-c2ccc(NC(=O)Nc3ccc(N4CCC(N(C)C)CC4)cc3)cc2)nc(N2C3CCC2COC3)n1` [Example 388, 1-(4-(4-(3-oxa-8-azabicyclo[3.2.1]octan-8-yl)-6-(isopropylamino)-1,3,5-triazin-2-yl)phenyl)-3-(4-(4-(dimethylamino)piperidin-1-yl)phenyl)urea], for which the IC50 was 110 nM in assay [1], 3450 nM on PI3K-α, 4.8 nM at Human mTOR (FLAG-TOR) and 4280 nM on PI3K-γ (read-out: IC50 PI3Kγ).

As for `CC(C)N(C)c1nc(-c2ccc(NC(=O)Nc3ccc(CN(C)C)cc3)cc2)nc(N2C3CCC2COC3)n1` [Example 390, 1-(4-(4-(3-oxa-8-azabicyclo[3.2.1]octan-8-yl)-6-(isopropyl(methyl)amino)-1,3,5-triazin-2-yl)phenyl)-3-(4-((dimethylamino)methyl)phenyl)urea], the IC50 stood at 650 nM in assay [1], 2470 nM at PI3K-α, 12 nM at Human mTOR (FLAG-TOR) and 2350 nM on PI3K-γ (read-out: IC50 PI3Kγ).

On to `CC(C)N(C)c1nc(-c2ccc(NC(=O)Nc3ccc(OCCN(C)C)cc3)cc2)nc(N2C3CCC2COC3)n1` [Example 391, 1-(4-(4-(3-oxa-8-azabicyclo[3.2.1]octan-8-yl)-6-(isopropyl(methyl)amino)-1,3,5-triazin-2-yl)phenyl)-3-(4-(2-(dimethylamino)ethoxy)phenyl)urea], for which the IC50 in assay [1] is 300 nM; on PI3K-α, 2400 nM; on Human mTOR (FLAG-TOR), 9.6 nM; at PI3K-γ (read-out: IC50 PI3Kγ), 4000 nM.

Turning to `O=C(Nc1ccc(-c2nc(N3CCSCC3)nc(N3C4CCC3COC4)n2)cc1)Nc1cccnc1` [Example 392, 1-(4-(4-(3-oxa-8-azabicyclo[3.2.1]octan-8-yl)-6-thiomorpholino-1,3,5-triazin-2-yl)phenyl)-3-(pyridin-3-yl)urea], the IC50 worked out at 480 nM in assay [1], 1180 nM on PI3K-α, 5.5 nM at Human mTOR (FLAG-TOR) and 2780 nM on PI3K-γ (read-out: IC50 PI3Kγ).

For the compound `O=C(Nc1ccncc1)Nc1ccc(-c2nc(N3CCSCC3)nc(N3C4CCC3COC4)n2)cc1` [Example 393, 1-(4-(4-(3-oxa-8-azabicyclo[3.2.1]octan-8-yl)-6-thiomorpholino-1,3,5-triazin-2-yl)phenyl)-3-(pyridin-4-yl)urea], the IC50 in assay [1] is 580 nM; at PI3K-α, 444 nM; at Human mTOR (FLAG-TOR), 3.6 nM; at PI3K-γ (read-out: IC50 PI3Kγ) it was 1540 nM.

`CN(C)Cc1ccc(NC(=O)Nc2ccc(-c3nc(N4CCSCC4)nc(N4C5CCC4COC5)n3)cc2)cc1` [Example 395, 1-(4-(4-(3-oxa-8-azabicyclo[3.2.1]octan-8-yl)-6-thiomorpholino-1,3,5-triazin-2-yl)phenyl)-3-(4-((dimethylamino)methyl)phenyl)urea]: the IC50 is 590 nM in assay [1], 584 nM on PI3K-α, 14 nM at Human mTOR (FLAG-TOR) and 2220 nM at PI3K-γ (read-out: IC50 PI3Kγ).

As to `C[C@@H]1COCCN1c1nc(-c2ccc(NC(=O)Nc3cccnc3)cc2)nc(N2CCOC[C@H]2C)n1` [Example 398, 1-(4-(4,6-bis((R)-3-methylmorpholino)-1,3,5-triazin-2-yl)phenyl)-3-(pyridin-3-yl)urea], the IC50 in assay [1] came out at 12 nM; at PI3K-α, 644 nM; on Human mTOR (FLAG-TOR), 0.21 nM; at PI3K-γ (read-out: IC50 PI3Kγ) it was 3910 nM.
